Consider one compound from PMC7036871, “Identification and Characterization of pantocin wh-1, a Novel Cyclic Polypeptide Produced by Pantoea dispersa W18” (Molecules, 2020).

The subject of data set [1] is trypsin. As to the kind of experiment: Effect of enzymes on antibacterial activity: trypsin. It is filed as in vitro ADME. An excerpt:
(§1) Furthermore, the antibacterial activity of pantocin wh-1 also retained nearly 100% of the initial activity within a broad pH range (pH 2–12).
(§2) The effect of various enzymes, pH, and temperature on pantocin wh-1 activity was detected as described by J.-M. Chobert et al. with a slight modification. Proteinase K, trypsin, catalase, lysozyme, DNAse, and RNAse were used to test the antibacterial activity of pantocinwh-1. To analyze the effect of different pH values on the antibacterial activity of pantocin wh-1, the sample of pantocin wh-1 was exposed to buffer with a pH value of 2–12 for 1 h at 25 °C. The effect of temperature on the anti-mycobacterial activity of pantocin wh-1 was determined by incubating pantocin wh-1 at 50 °C and 100 °C for 60 min, as well as at 121 °C for 15 min, and then detecting the bactericidal activity against M. smegmatis mc^2 155.

Data set [2] deals with Klebsiella. The experiment in a line: Antimicrobial spectrum, microporous dilution method. It is filed as cell-based. The protocol:
(§3) In this paper, the microporous dilution method was used to detect the antibacterial spectrum of pantocin wh-1 against Gram-negative and -positive bacteria. […] The time kill studies were determined over 8 h with M. smegmatis mc^2 155 being exposed to 0.5, 1, 2, or 4 × MIC of pantocin wh-1. […] At 2 × MIC and 4 × MIC, pantocin wh-1 caused bacterial eradication was completed approximately after 4 h.
(§4) The antibacterial activity of the pantocin wh-1 was detected by the microscale optical density assay (MODA) method. Briefly, 90 μL of the dilutions of pantocin wh-1, 100 μL 2 × 7H9 medium, and 10 μL of a log phase indicator strain were co-incubated in the 96-well plate at 37 °C for 48 h. For control groups, 90 μL of the dilutions of pantocin wh-1 were replaced by an equal volume of sterile water. After incubation, the 96 well microplate was measured by a microplate reader at a 600 nm wavelength (Biotek synergyH1, Biotek, Winooski, VT, USA). The amount of pantocin wh-1 produced by P. dispersa W18 was determined using two fold dilutions. […] The results were expressed in AU/mL. The MIC was defined as the last dilution of pantocin wh-1 sufficient to prevent indicator strain growth in vitro.

Data set [3] concerns M. smegmatis mc^2 155. As to the kind of experiment: Antibacterial activity, microscale optical density assay (MODA) / microporous dilution. It is filed as cell-based, Mycobacterium smegmatis. Further details: key: -: no inhibitory activity; +: Inhibit the growth of less than 10% amount of the initial bacteria; ++: Inhibit the growth of less than 50% amount of the initial bacteria; +++: Inhibit the growth of initial bacteria completely. Particulars: M. smegmatis mc2155, medium 7H9. How it is done: as §3, §4

Data set [4] deals with pepsin.
Data set [5] concerns the target proteinase K (Parengyodontium album, UniProt P06873). The experiment in a line: Effect of enzymes on antibacterial activity: proteinase K. It is filed as in vitro ADME.
Text: as §1, §2

For data set [6], the system named is M. tuberculosis H37Ra. It is filed as cell-based, Mycobacterium tuberculosis. Particulars: M. tuberculosis Ra, medium 7H9. Further details: key: -: no inhibitory activity; +: Inhibit the growth of less than 10% amount of the initial bacteria; ++: Inhibit the growth of less than 50% amount of the initial bacteria; +++: Inhibit the growth of initial bacteria completely.

Data set [7] concerns autoluminescent H37Ra (UAlRa). Further details: species or system BALB/c female mice. Particulars: mouse, in vivo.
Data set [8] relates to M. smegmatis mc^2 155. As to the kind of experiment: Time kill study. It is filed as cell-based, Mycobacterium smegmatis. How it is done: as §3
For detection of the time kill study, 100 μL of the indicator strain in exponential phase were added to tubes containing 5 mL of the modified 7H9 medium with pantocin wh-1 at 0.5, 1, 2, and 4 × MIC. No pantocin wh-1 was added in the control tube, then incubated at 37 °C for 8 h. At the end of each time period, tenfold serial dilutions were prepared with 0.5 mM phosphate buffer, and 100 μL cultures were plated in triplicate onto the 7H10 plates. For anti-tuberculosis activities in vivo, an auto-luminescent strain of M. tuberculosis H37Ra (AlRa) described by Tianyu Zhang was used to assess the efficacy of pantocin wh-1 in a mouse model. The relative light unit (RLU) count was determined to parallel CFU counts during the active phase of bacterial growth. AlRa with OD600 of 0.1 was injected into female BALB/c mice by tail vein. The day after injection (Day 0), RLU values were detected for 6 days in triplicate.

Data set [9] has as its system M. bovis BCG. It is filed as cell-based. Further details: key: -: no inhibitory activity; +: Inhibit the growth of less than 10% amount of the initial bacteria; ++: Inhibit the growth of less than 50% amount of the initial bacteria; +++: Inhibit the growth of initial bacteria completely. Particulars: medium 7H9.
For data set [10], the system named is S. suis. As to the kind of experiment: Antimicrobial spectrum, microporous dilution method. It is filed as cell-based, Streptococcus suis. The protocol:
as §3, §4

Data set [11] relates to E. coli O157. The data set is described as above. It is filed as cell-based. Further details: key: -: no inhibitory activity; +: Inhibit the growth of less than 10% amount of the initial bacteria; ++: Inhibit the growth of less than 50% amount of the initial bacteria; +++: Inhibit the growth of initial bacteria completely. The conditions noted are these: E. coli O157, medium LB.

Data set [12] concerns S. aureus N315. The data set is described as above. Particulars: S. aureus N315, medium LB. Further details: key: -: no inhibitory activity; +: Inhibit the growth of less than 10% amount of the initial bacteria; ++: Inhibit the growth of less than 50% amount of the initial bacteria; +++: Inhibit the growth of initial bacteria completely. It is filed as cell-based.
Data set [13] has as its system Bacillus cereus. The data set is described as above. It is filed as cell-based. Further details: key: -: no inhibitory activity; +: Inhibit the growth of less than 10% amount of the initial bacteria; ++: Inhibit the growth of less than 50% amount of the initial bacteria; +++: Inhibit the growth of initial bacteria completely. The conditions noted are these: medium LB. How it is done: as §3, §4

“Also recorded” adds a separate entry of the source. Where a SMILES comes first, the peptide text is derived from it.

Sequence of proteinase K (P06873 106-384): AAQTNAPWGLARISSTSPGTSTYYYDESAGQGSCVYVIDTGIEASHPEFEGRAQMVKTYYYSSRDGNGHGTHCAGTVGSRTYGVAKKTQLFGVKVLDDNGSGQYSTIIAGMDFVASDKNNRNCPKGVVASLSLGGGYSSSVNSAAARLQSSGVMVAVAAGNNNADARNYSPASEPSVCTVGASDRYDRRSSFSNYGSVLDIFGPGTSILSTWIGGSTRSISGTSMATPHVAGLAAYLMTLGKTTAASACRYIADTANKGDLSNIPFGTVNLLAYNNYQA

Turning to `CSCC[C@@H]1NC(=O)[C@H](C(C)C)NC(=O)[C@H](Cc2c[nH]c3ccccc23)NC(=O)[C@H](C(C)C)NC(=O)[C@H](C)NC(=O)[C@H](CS)NC(=O)[C@H](CC(N)=O)NC(=O)[C@H](Cc2ccccc2)NC(=O)CNC(=O)[C@H](Cc2ccc(O)cc2)NC(=O)CNC(=O)[C@H](Cc2ccccc2)NC(=O)[C@H](C(C)C)NC(=O)[C@H](Cc2ccc(O)cc2)NC(=O)[C@H](CS)NC(=O)[C@H](Cc2c[nH]c3ccccc23)NC1=O` [pantocin wh-1] (cyclo(AVWVMWCYVFGYGFNC)), the “inhibitory activity after trypsin” value in [1] (trypsin) is “not completely inactivated; also recorded: partial sensitivity”. Further, in [1] (trypsin treatment, compared with antimicrobial activity before the treatment), the Residual activity is on record as 27%. In addition, the “inhibitory activity” value in data set [2] and in data set [10] (Streptococcus suis) was “partial inhibitory activity” throughout. For the same compound, the Inhibition activity entry in data set [3] is given as “+++”; in data set [6], “+++”; in data set [9], “+++”; in data set [10] (S. suis, medium BHI), “+ (Inhibit the growth of less than 10% amount of the initial bacteria)”; in [11], “-”; in data set [12], “-”. The Inhibition activity result in data set [13] is “-”. For the same compound, the “activity after pepsin” value in data set [4] was “not completely inactivated”. In addition, the “inhibitory activity after proteinase K” value in [5] was “inactivated completely”. Moreover, the “relative light unit (RLU) value” in [7] is “significant decrease”. The “therapeutic effect compared with streptomycin” value in data set [7] is listed as “did not exceed that of streptomycin”. Also, in data set [8] (0.5 and 1 × MIC, within the first 2 h, followed by bacterial regeneration to near the initial concentration), the “decline in colony forming units (CFU)” value was more than 3 log. Also, in data set [8] (2 × MIC and 4 × MIC), the “time to completed bacterial eradication” value is on record as approximately 4 h.
